Experimental data reported in patent US20140199372A1, “MICROBIAL GROWTH FACTORS” (NORTHEASTERN UNIVERSITY, priority 2011, published 2014).
Read-outs that look alike come from different tables or passages of the source.

Tests used:
[1] = test system: KLE1280; experiment: Induction of growth of KLE1280 by quinones on plates; format: cell-based, Porphyromonas sp. KLE1280
Method: Serial dilutions of dental plaque from a healthy individual were spread onto Fastidious Anaerobe Agar plates containing 5% sheep blood and 5% pooled human saliva (FBS) and incubated anaerobically. Small colonies growing next to large ones on dense plates were picked and spread onto fresh FBS plates. A helper mix of colonies growing around individual small colonies was spotted on these plates. Isolates were identified that depended for growth on this mix. If E. coli produces a growth factor, its identification can be efficiently performed, since a complete knockout library of this species is available. Testing knockout mutants identifies those that lost their ability to help growth of the uncultured organism, which then leads to the identification of the biosynthetic pathway of the growth factor. […] This organism is closely related to Porphyromonas sp. oral taxon 279 (99% similarity by 16S rRNA gene sequencing) (96% similarity to closest type strain Porphyromonas catoniae). In particular, KLE1280 is closely related to Porphyromonas catoniae (96% similarity by 16S rRNA gene sequencing). […] This deletion mutant has the menaquinone biosynthesis genes deleted. […] 5 genes in the menaquinone biosynthesis pathway are knocked out in this mutant (http://www.shigen.nig.ac.jp/ecoli/pec/quickSearch.List.DeletionsDetailAction.do?fromListFlag=true&classId=4&deId=226). E. coli strains with single gene deletions in the menaquinone biosynthesis pathway were tested for induction of growth.
Different quinones (Q), commercially available and/or isolated from E. coli and Micrococcus luteus were tested for induction of growth of KLE1280.
Different concentrations of MK4 were spotted on media with and without blood (5%) or hemin (10 μg/ml) or hemoglobin (100 μg/ml).

[2] = test system: Flaviramulus sp. KLE1215; experiment: Growth of KLE1215 in liquid culture with quinones delivered in liposomes; format: cell-based; conditions: R2A broth, 50% artificial sea salts, 0.001% Fe(II), MK4 250 μM to 1.5 mM, MK6 and MK6 chromenols purified from KLE1215
Method: The growth of Flaviramulus sp. KLE1215 is enhanced by the addition of purified quinone-like compounds when they are delivered in liposomes. […] Growth of KLE1215 induced with varying concentrations of MK4 delivered in liposomes. 5 ml liquid cultures of KLE1215 were set up with no supplement (squares), empty liposomes as liposome control (triangles), liposomes loaded with 250 μM MK4 (cross), liposomes loaded with 500 μM MK4 liposomes (asterisk), liposomes loaded with 750 μM MK4 (circle), liposomes loaded with 1 mM MK4 (vertical line), liposomes loaded with 1.25 mM MK4 (dark line), and liposomes loaded with 1.5 mM MK4 (light line) is shown in FIG. 8. […] broth (without yeast extract) with 50% artificial sea salts supplemented with 0.001% Fe(II) was used for these cultures. Values represent the average of two independent cultures of KLE1215 in […] broth with 50% artificial sea salts supplemented with 0.001% Fe(II). […] 5 ml liquid cultures of KLE1215 were prepared with nothing added (squares), empty liposome as liposome control (triangles), liposomes loaded with MK6 from KLE1215 (cross), and liposomes loaded with MK6 chromenols from KLE1215 (asterisk). R2A broth (without yeast extract) with 50% artificial sea salts supplemented with 0.001% Fe(II) was used for these cultures. Values represent the average of independent cultures of KLE1215 in […] broth with 50% artificial sea salts supplemented with 0.001% Fe(II).

[3] = test system: Bizinio sp. KLE1402; experiment: Growth of KLE1402 in liquid culture with quinone-loaded liposomes; format: cell-based; conditions: delivered by liposomes loaded with 500 μM MK4; R2A broth, 50% sea salts, 0.001% Fe(II)
Text: Two isolates were streaked for isolation; the culturable helper on the left induces the growth of unculturable KLE1402 on the right only when it is close proximity. The closest relative to the dependent KLE1402 is Bizionia echini (96.6% Identity according to 16S rRNA gene sequence), from the family Flavobacteriaceae. The closest relative to the helper KLE1403 is Ruegeria lacuscaerulensis (98.4% identity by 16S rRNA gene sequence), from the class Alphaproteobacteria. E. coli induces the growth of KLE1402 (FIG. 11). KLE1402 spread evenly on R2A with 50% artificial sea salts and 0.001% Fe(II) with a dense spot of E. coli. […] KLE1402 spread evenly on R2A with 50% artificial sea salts and 0.001% Fe(II) with a dense spot of E. coli ΔubiG. KLE1402 grows with the addition of quinone-loaded liposomes (FIG. 13). Cells of KLE1402 were used to inoculate culture tubes with 5 ml R2A broth with 50% sea salts and 0.001% Fe(II). Tube A: no supplement, Tube B: Empty liposomes added, Tube C: Liposomes loaded with 500 μM MK4 added. KLE1402 grows with the addition of quinone-loaded liposomes (FIG. 14). 5 ml liquid cultures of KLE1402 were set up with no supplement (squares), empty liposomes as liposome control (triangles), liposomes loaded with 500 μM MK4 (cross). R2A broth with 50% artificial sea salts supplemented with 0.001% Fe(II) was used as media for these cultures. […]

[4] = quinone isolated from M. luteus

## O=C(O)c1cc(O)c2ccccc2c1O [DHNA, 1,4-dihydroxy-2-naphthoate]
[1]
  induction of growth of KLE1280: showed induction of growth

## CC(C)=CCC/C(C)=C/CC/C(C)=C/CC/C(C)=C/CC1=C(C)C(=O)c2ccccc2C1=O [Menaquinone4]
[2]
  growth of KLE1215: growth-enhancing effects
[1]
  induction of growth of KLE1280: induced growth
[1]; quinone commercially available
  Results: induction of growth of KLE1280: Induction
[1]; [4]
  Results: induction of growth of KLE1280: Induction
[1]; spotted on media with blood (5%) or hemin (10 μg/ml) or hemoglobin (100 μg/ml)
  induction of growth of KLE1280: induced growth only in the presence of either of these 3 in the medium
[1]; substance alone
  induction of growth of KLE1280: did not induce growth
[3]
  growth of KLE1402: can induce the growth

## CC(C)=CCC/C(C)=C/CC/C(C)=C/CC/C(C)=C/CC/C(C)=C/CC1=C(C)C(=O)c2ccccc2C1=O [Menaquinone5]
[1]; [4]
  Results: induction of growth of KLE1280: Induction

## CC(C)=CCC/C(C)=C/CC/C(C)=C/CC/C(C)=C/CC/C(C)=C/CC/C(C)=C/CC1=C(C)C(=O)c2ccccc2C1=O [Menaquinone6]
[2]
  growth of KLE1215: growth-enhancing effects
[1]; [4]
  Results: induction of growth of KLE1280: Induction

## CC(C)=CCC/C(C)=C/CC/C(C)=C/CC/C(C)=C/CC/C(C)=C/CC/C(C)=C/CC/C(C)=C/CC1=C(C)C(=O)c2ccccc2C1=O [Menaquinone7]
[1]; [4]
  Results: induction of growth of KLE1280: Very less induction (late)

## CC(C)=CCC/C(C)=C/CC/C(C)=C/CC/C(C)=C/CC/C(C)=C/CC/C(C)=C/CC/C(C)=C/CC/C(C)=C/CC1=C(C)C(=O)c2ccccc2C1=O [Menaquinone8]
[1]; quinone isolated from E. coli
  Results: induction of growth of KLE1280: No induction
[1]; [4]
  Results: induction of growth of KLE1280: Very less induction (late)

## COC1=C(OC)C(=O)C(CC=C(C)C)=C(C)C1=O [Q1]
[1]; quinone commercially available
  Results: induction of growth of KLE1280: No induction

## COC1=C(OC)C(=O)C(C/C=C(\C)CCC=C(C)C)=C(C)C1=O [Q2]
[1]; quinone commercially available
  Results: induction of growth of KLE1280: No induction

## COC1C(=O)C(C)=C(C/C=C(\C)CC/C=C(\C)CC/C=C(\C)CCC=C(C)C)C(=O)C1OC (stereo not drawn) [Q4]
[1]; quinone commercially available
  Results: induction of growth of KLE1280: No induction

## COC1=C(OC)C(=O)C(C/C=C(\C)CC/C=C(\C)CC/C=C(\C)CC/C=C(\C)CC/C=C(\C)CC/C=C(\C)CC/C=C(\C)CC/C=C(\C)CCC=C(C)C)=C(C)C1=O [Q9]
[1]; quinone commercially available
  Results: induction of growth of KLE1280: No induction

## COC1=C(OC)C(=O)C(C/C=C(\C)CC/C=C(\C)CC/C=C(\C)CC/C=C(\C)CC/C=C(\C)CC/C=C(\C)CC/C=C(\C)CC/C=C(\C)CC/C=C(\C)CCC=C(C)C)=C(C)C1=O [Q10]
[1]; quinone commercially available
  Results: induction of growth of KLE1280: No induction

## COC1=C(OC)C(=O)C(C/C=C(\C)CC/C=C(\C)CC/C=C(\C)CC/C=C(\C)CC/C=C(\C)CC/C=C(\C)CCC=C(C)C)=C(C)C1=O [Ubiquinone7]
[1]; quinone isolated from E. coli
  Results: induction of growth of KLE1280: No induction

## COC1=C(OC)C(=O)C(C/C=C(\C)CC/C=C(\C)CC/C=C(\C)CC/C=C(\C)CC/C=C(\C)CC/C=C(\C)CC/C=C(\C)CCC=C(C)C)=C(C)C1=O [Ubiquinone8]
[1]; quinone isolated from E. coli
  Results: induction of growth of KLE1280: No induction

## hemin
[1]; substance alone
  induction of growth of KLE1280: did not induce growth

## hemoglobin
[1]; substance alone
  induction of growth of KLE1280: did not induce growth

## menachromenal 6 [MK6 chromenols]
[2]
  growth of KLE1215: growth-enhancing effects
